Structures are written as SMILES. “And” between values parts separate entries of the source, which are not always exact repeats. Equal entries are not always repeated. “Also recorded” adds a separate entry of the source. Where two headings read alike, the source gives them in different places.

Data set [1] in a line: Oxygen radical absorbance capacity by fluorescence (ORAC-FL). Particulars: mean ± SD. The method, then: Trolox was used as standard, fluorescein as fluorescent probe and 2,2′-azobis(2-amidinopropane) dihydrochloride (AAPH) as the peroxyl radical source. Ferulic acid was used as a positive control.
The antioxidant power of BCPOs was determined following the ORAC-FL method using fluorescein as the fluorescent probe. (±)-6-Hydroxy-2,5,7,8-tetramethylchromane-2-carboxylic acid (Trolox), fluorescein (FL) and AAPH were bought from Sigma-Aldrich (Saint Louis, MO, USA). A Varioskan Flash plate reader with built-in injectors (Thermo Scientific, Waltham, MA, USA) was used. The final volume reaction mixture was 200 µL and the reaction was carried out at 37 °C in 75 mM phosphate buffer (pH 7.4). The tested compounds and Trolox standard were dissolved in DMSO to 10 mM and further diluted in phosphate buffer. The final concentrations were 0.1–1 µM for the tested compounds and 1–8 µM for Trolox standard. The blank was composed of 120 µL of FL, 60 µL of AAPH and 20 µL of phosphate buffer (pH = 7.4) and was added in each assay. The antioxidant (20 µL) and fluorescein (FL, 120 µL, final concentration of 70 nM) were incubated in a black 96-well microplate Nunc, purchazed from Thermo Fisher Scientific, Ecublens, Switzerland) for 15 min at 37 °C. Then, AAPH, 60 µL, final concentration of 12 mM) solution was added quickly using the built-in injector. […] The microplate was automatically shaken prior to each reading. All the experiments were made in triplicate and at least three different assays were performed for each sample.
Using MS Excel software, regression equations were extrapolated by plotting the net AUC against the antioxidant concentration. The ORAC values were then obtained by dividing the slope of the latter curve between the slope of the Trolox curve obtained in the same assay. Final ORAC values were expressed as Trolox equivalents. Data are expressed as mean ± SD.

The target of data set [2] is T1, human recombinant AChE (hAChE) (Homo sapiens, UniProt P22303).
T1 construct: purchased Sigma-Aldrich
T1 sequence (P22303 32-614): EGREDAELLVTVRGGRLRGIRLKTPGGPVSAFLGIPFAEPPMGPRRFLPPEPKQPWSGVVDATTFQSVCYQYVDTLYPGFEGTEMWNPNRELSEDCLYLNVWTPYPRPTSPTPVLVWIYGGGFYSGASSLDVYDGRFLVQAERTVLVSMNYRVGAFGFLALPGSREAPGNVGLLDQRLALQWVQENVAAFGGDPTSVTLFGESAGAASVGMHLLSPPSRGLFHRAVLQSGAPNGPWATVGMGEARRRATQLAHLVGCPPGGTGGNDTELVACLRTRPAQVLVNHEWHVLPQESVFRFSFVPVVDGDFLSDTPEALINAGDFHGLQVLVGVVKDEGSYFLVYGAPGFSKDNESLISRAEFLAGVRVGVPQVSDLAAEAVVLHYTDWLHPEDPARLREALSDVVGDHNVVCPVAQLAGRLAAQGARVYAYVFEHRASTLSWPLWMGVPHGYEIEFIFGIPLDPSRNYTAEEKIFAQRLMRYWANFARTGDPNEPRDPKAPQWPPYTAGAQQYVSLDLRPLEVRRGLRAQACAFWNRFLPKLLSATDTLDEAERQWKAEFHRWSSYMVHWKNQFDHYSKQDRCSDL
In words: biochemical. As for the experimental part:
Ellman’s assay was followed to evaluate the anticholinesterasic potency of BCPOs using human recombinant AChE (Sigma-Aldrich). 500 U of hAChE were dissolved in 1 mL of a gelatine solution (1% in water) and diluted with demineralized water to give a stock solution of 5 U/mL. […] All assays were performed in 0.1 M phosphate buffer pH 8.0. The assayed compounds or blank (water) (25 µL) were incubated with the enzyme (20 µL) for 5 min at 37 °C in 765 µL of phosphate buffer prior to start the reaction. Then, 20 µL of DTNB and 20 µL of ATC were added. […] IC50 values were determined with GraphPad Prism 5. Each concentration was measured in triplicate. Data are expressed as mean ± SEM.

Data set [3] has as its target T2, horse serum BuChE (eqBuChE) (Equus caballus, UniProt P81908).
T2 construct: BuChE from horse serum (lyophilized powder, Sigma-Aldrich); purchased Sigma-Aldrich; host or cells: horse serum
In words: Inhibition of eqBuChE (Ellman's assay). Type of data set: biochemical. Particulars: 10 µM compound. As for the experimental part: For the preliminary screening of the inhibitory potencies, Electrophorus electricus AChE (EeAChE) and horse serum BuChE (eqBuChE) were used following the Ellman’s assay.
Assessment of the inhibitory power of BCPOs was performed following the spectrophotometric method of Ellman using purified AChE from Electrophorus electricus (Type V-S, Sigma-Aldrich) or BuChE from horse serum (lyophilized powder, Sigma-Aldrich). Enzymes were first dissolved in 0.1 M phosphate buffer (pH 8.0) and then aliquoted in small vials for easy handling. Compounds stock solutions in DMSO (10 mM) were diluted when necessary with DMSO to prepare appropriate dilutions of each compound. The assay was performed in a final volume of 3 mL of a 0.1 M phosphate-buffered solution at pH 8.0, containing 5,5′-dithiobis-2-nitrobenzoic acid (DTNB, 2625 µL, 0.35 mM, final concentration), EeAChE (29 µL, 0.035 U/mL final concentration) or eqBuChE (60 µL, 0.05 U/mL final concentration) tested compound (3 µL, different concentrations) and 1% (w/v) Bovine Albumin Serum phosphate-buffered (pH 8.0) solution (BSA, 40 µL). The inhibition in comparison to control without compound was determined by pre-incubating this blend at room temperature with each compound at nine different concentrations for 10 min. Then, acetylthiocholine iodide (105 µL, 0.35 mM, final concentration) or butyrylthiocholine iodide (150 µL, 0.5 mM final concentration) was added and incubated for another 15 min at rt. […] Calculation of IC50 values was performed with GraphPad Prism 5. Each concentration was measured in triplicate. Data are expressed as mean ± SEM.
(In general: Ellman's reagent forms a yellow product with free thiols.)

The target of data set [4] is T1, human recombinant AChE (hAChE). In words: Kinetic characterization of hAChE inhibition (Lineweaver-Burk). Format: biochemical. As for the experimental part: To get insight into the mode of inhibition, the kinetic mechanism of hAChE inhibition by compound 3Bb was investigated through classical Lineweaver-Burk double reciprocal plots.
To estimate the type of inhibition of hAChE, we performed the same experimental protocol as reported for hAChE inhibition. […]. The stock solution of ATC (0.5 mM in a well) was prepared in demineralized water and diluted before use to obtain 0.4, 0.3, 0.2, 0.1 and 0.067 mM substrate solutions. The double reciprocal plots were analysed by a weighted least square procedure that assumed the variance of V to be constant. Each experiment was performed in triplicate. To confirm the mode of inhibition, Cornish-Bowden plots were obtained by plotting S/V (substrate/velocity ratio) versus the inhibitor concentration. Data analysis was performed with GraphPad Prism 5. Inhibition constant (Ki) values were determined by re-plotting slopes from the Lineweaver-Burk plot versus the inhibitor concentration where Ki was determined as the intersect of the line with the x-axis.

Data set [5] is described as follows: Solubility in DMSO (footnote remark). Type of data set: physicochemical. Particulars: DMSO at 10 mM and 1 mM.

T2 sequence (P81908 whole entry): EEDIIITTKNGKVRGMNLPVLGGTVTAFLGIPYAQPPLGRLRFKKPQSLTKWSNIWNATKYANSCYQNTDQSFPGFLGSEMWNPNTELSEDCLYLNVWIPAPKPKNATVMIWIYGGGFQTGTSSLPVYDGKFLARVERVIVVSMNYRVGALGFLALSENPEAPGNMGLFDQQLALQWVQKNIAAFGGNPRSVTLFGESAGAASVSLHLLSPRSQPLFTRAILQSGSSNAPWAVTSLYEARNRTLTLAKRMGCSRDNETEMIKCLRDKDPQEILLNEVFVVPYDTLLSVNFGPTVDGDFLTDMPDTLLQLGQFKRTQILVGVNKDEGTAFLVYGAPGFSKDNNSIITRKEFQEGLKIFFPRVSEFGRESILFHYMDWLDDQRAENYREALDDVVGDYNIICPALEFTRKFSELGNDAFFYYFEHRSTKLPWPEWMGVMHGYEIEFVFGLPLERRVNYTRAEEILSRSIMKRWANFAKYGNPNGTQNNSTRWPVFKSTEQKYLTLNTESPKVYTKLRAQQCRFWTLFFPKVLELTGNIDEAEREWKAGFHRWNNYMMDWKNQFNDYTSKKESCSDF

The term IC50 denotes the concentration that gives 50% inhibition. The inhibition is the drop in the measured response relative to a control, in per cent. Low values mean little suppression, high ones strong suppression. Compound `O=c1c2c(nc3n1CCCC3)Oc1ccc3ccccc3c1C2c1ccccc1` (stereo not shown) [3Ab, 15-Phenyl-10,11,12,15-tetrahydro-9H-benzo[5,6]chromeno[2,3-d]pyrido[1,2-a]pyrimidin-14-one] yielded an ORAC in data set [1] of 2.3 ± 0.3 Trolox equivalents. For the same compound, in data set [2] (mean ± SEM), the IC50 came out at 3660 ± 59 nM. In data set [3], this compound came in with an inhibition at 10 µM of 31.2 ± 1.8%.
Consider `COc1cccc(C2c3c(nc4n(c3=O)CCC4)Oc3ccc4ccccc4c32)c1` (stereo not shown) [3Ba, 14-(3′Methoxyphenyl)-10,11-dihydro-14H-benzo[5,6]chromeno[2,3-d]pyrrolo[1,2-a]pyrimidin-13(9H)-one], for which, in data set [1], the ORAC is 3.4 ± 0.2 Trolox equivalents. Also, the IC50 in data set [2] (mean ± SEM) came out at 1530 ± 25 nM. The compound further registered an inhibition at 10 µM in data set [3] of 51 ± 4%.
The Ki is a measure of affinity in units of concentration, obtained from inhibition or displacement. As to `COc1cccc(C2c3c(nc4n(c3=O)CCCC4)Oc3ccc4ccccc4c32)c1` (stereo not shown) [3Bb, 15-(3′-Methoxyphenyl)-10,11,12,15-tetrahydro-9H-benzo[5,6]chromeno[2,3-d]pyrido[1,2-a]pyrimidin-14-one], the “mode of hAChE inhibition” value in data set [4] (Lineweaver-Burk double reciprocal plot) is “mixed-type inhibition; also recorded: mixed-type hAChE inhibitor”. The Ki in data set [4] (estimated from Lineweaver-Burk replots, read-out: Ki (dissociation constant for the enzyme-inhibitor complex)) was 380 nM. For the same compound, in data set [1], the ORAC is 4.7 Trolox equivalents and 4.7 ± 0.2 Trolox equivalents. The figures for the IC50 in data set [2] and in data set [2] (mean ± SEM) were 1280 ± 30 nM and 1280 ± 32 nM, respectively. The compound also registered an inhibition at 10 µM in data set [3] of 43 ± 1.9%.
Regarding `Cc1ccc(C2c3c(nc4n(c3=O)CCCC4)Oc3ccc4ccccc4c32)cc1` (stereo not shown) [3Cb, 15-(4′-Methylphenyl)-10,11,12,15-tetrahydro-9H-benzo[5,6]chromeno[2,3-d]pyrido[1,2-a]pyrimidin-14-one], the “solubility in DMSO (in words)” value in data set [5] was “poor solubility in DMSO at 10 mM and 1 mM”. The compound further displayed an ORAC in data set [1] of 3.9 ± 0.3 Trolox equivalents. Further, in data set [2] (mean ± SEM), the IC50 turned out to be 1590 ± 24 nM. For the same compound, in data set [3], the inhibition at 10 µM stood at 19 ± 2%.

Source of the values: paper PMC6273488, “Synthesis and Biological Evaluation of Benzochromenopyrimidinones as Cholinesterase Inhibitors and Potent Antioxidant, Non-Hepatotoxic Agents for Alzheimer’s Disease” (Molecules, 2016).
